Reference: paper PMC12207590, “Substrate Specificity of the Organic Cation Transporters MATE1 and MATE2K and Functional Overlap with OCT1 and OCT2” (Journal of Medicinal Chemistry, 2025)
Like-named read-outs stand apart in the source and are kept apart here.

Experiments:
MATE2K = MATE2K (Homo sapiens, UniProt Q86VL8); assay: Uptake ratio in MATE2K-overexpressing HEK293 cells vs empty vector (2.5 μM, 1 min, HPLC-MS/MS); type: cell-based
MATE1 = target: T1, MATE1 (Homo sapiens, UniProt Q96FL8); assay: Uptake ratio in MATE1-overexpressing HEK293 cells vs empty vector (2.5 μM, 1 min, HPLC-MS/MS); type: cell-based
T1 sequence (Q96FL8 1-570): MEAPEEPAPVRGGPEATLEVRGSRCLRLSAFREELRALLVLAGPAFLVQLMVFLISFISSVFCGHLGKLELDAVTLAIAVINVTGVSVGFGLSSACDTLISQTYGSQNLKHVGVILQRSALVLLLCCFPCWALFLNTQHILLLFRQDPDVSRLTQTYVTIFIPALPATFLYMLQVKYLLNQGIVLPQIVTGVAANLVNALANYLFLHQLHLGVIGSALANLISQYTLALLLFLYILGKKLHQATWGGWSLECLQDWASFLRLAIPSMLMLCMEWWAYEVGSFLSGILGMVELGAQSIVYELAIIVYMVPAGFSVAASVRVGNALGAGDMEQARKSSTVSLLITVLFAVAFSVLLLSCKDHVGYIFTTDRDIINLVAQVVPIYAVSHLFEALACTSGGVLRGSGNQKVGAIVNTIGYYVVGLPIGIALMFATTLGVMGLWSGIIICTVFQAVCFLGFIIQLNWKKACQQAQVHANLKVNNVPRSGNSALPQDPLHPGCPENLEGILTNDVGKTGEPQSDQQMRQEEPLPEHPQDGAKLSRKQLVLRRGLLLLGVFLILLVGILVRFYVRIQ

[1] = fold uptake over empty vector, 2.5 μM, 1 min
[2] = mean ratio of uptake in MATE2K-overexpressing HEK293 cells vs empty vector, 2.5 μM, 1 min
[3] = mean ratio of uptake in MATE1-overexpressing HEK293 cells vs empty vector, 2.5 μM, 1 min
[4] = uptake ratio MATE2K-overexpressing vs empty-vector HEK293 cells, 2.5 μM, 1 min, mean
[5] = uptake ratio MATE1-overexpressing vs empty-vector HEK293 cells, 2.5 μM, 1 min, mean

Chain of MATE2K (Q86VL8 1-566 isoform Q86VL8-3): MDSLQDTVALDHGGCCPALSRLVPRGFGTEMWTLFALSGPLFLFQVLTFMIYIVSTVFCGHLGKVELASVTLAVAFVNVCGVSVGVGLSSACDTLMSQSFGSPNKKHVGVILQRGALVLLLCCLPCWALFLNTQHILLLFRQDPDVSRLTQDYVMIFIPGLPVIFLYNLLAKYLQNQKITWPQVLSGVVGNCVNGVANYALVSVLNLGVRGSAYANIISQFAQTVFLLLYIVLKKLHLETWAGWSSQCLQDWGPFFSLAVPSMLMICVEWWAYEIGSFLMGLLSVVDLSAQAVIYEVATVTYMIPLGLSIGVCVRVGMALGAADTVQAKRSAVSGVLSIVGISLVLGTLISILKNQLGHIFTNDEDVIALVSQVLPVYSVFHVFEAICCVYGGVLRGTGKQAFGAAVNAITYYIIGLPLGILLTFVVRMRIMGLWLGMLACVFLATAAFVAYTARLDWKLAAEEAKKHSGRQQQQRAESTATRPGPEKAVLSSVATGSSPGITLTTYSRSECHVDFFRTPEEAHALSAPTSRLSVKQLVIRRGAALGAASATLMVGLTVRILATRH

Compound	MATE2K ratio (MATE2K; [1])	MATE1 ratio (MATE1; [1])	MATE2 (MATE2K; [4])	MATE1 (MATE1; [5])	other results
CNCC[C@@H](Oc1ccccc1C)c1ccccc1 [Atomoxetine (S), Atomoxetine]	1.03	1.16	–	–	MATE2 (uptake ratio) (MATE2K; [2]): 1.03; MATE1 (uptake ratio) (MATE1; [3]): 1.16
CCN1CCC[C@H]1CNC(=O)c1c(OC)ccc(Br)c1OC [Remoxipride]	1.21	1.19	1.21	1.19	–
Cn1nnc2c(C(N)=O)ncn2c1=O [Temozolomide]	–	–	1.1	1.03	–
CC(C)Nc1cccnc1N1CCN(C(=O)c2cc3cc(NS(C)(=O)=O)ccc3[nH]2)CC1 [Delavirdine]	1.09	1.19	–	–	–
C[C@@H]1CCN(C(=O)CC#N)C[C@@H]1N(C)c1ncnc2[nH]ccc12 [Tofacitinib]	–	–	1.41	1.36	MATE2K ratio in this study (MATE2K; Table S1, 2.5 μM, 1 min): 1.41; MATE1 ratio in this study (MATE1; Table S1, 2.5 μM, 1 min): 1.36
COc1cc2c(cc1OC)CC(=O)N(CCCN(C)C[C@H]1Cc3cc(OC)c(OC)cc31)CC2 [Ivabradine]	1.23	1.14	–	–	–
CC(CCc1ccc(O)cc1)NCC(O)c1ccc(O)cc1 (stereo not shown) [Ractopamine]	–	–	–	–	MATE2 (MATE2K): 1.4; MATE2K ratio (MATE2K): 1.40; MATE1 (MATE1): 4.56; MATE1 ratio (MATE1): 4.56
NC(N)=NCc1cccc(I)c1 [m-Iodobenzylguanidin]	2.28	3.53	–	–	–
O=C(c1ccc(OCCN2CCCCC2)cc1)c1c(-c2ccc(O)cc2)sc2cc(O)ccc12 [Raloxifene]	1.12	1.12	1.12	1.12	–
C[C@H](NCCc1ccc(O)cc1)[C@H](O)c1ccc(O)cc1 (racemic) [Ritodrine]	2.23	8.03	2.23	8.03	–
C[C@](N)(Cc1ccc(O)c(O)c1)C(=O)O [Methyldopa]	1.15	1.04	–	–	–
C[N+](C)(C)C[C@@H](CC(=O)[O-])OC(=O)CCC(=O)O [Succinylcarnitine]	1.38	0.54	1.38	0.54	–
NCC(CC(=O)O)c1ccc(Cl)cc1 (stereo not shown) [Baclofen]	1.05	1.45	–	–	MATE2 (uptake ratio) (MATE2K; [2]): 1.05; MATE1 (uptake ratio) (MATE1; [3]): 1.45
C[N+]1(CCC(C(N)=O)(c2ccccc2)c2ccccc2)CCCCC1 [Fenpiverinium]	1.35	15.19	–	–	–
CCN(CC)CCNC(=O)c1ccc(NS(C)(=O)=O)cc1 [Sematilide]	6.42	19.10	6.42	19.1	–
NC12CC3CC(CC(C3)C1)C2 [Amantadine]	–	–	–	–	MATE2 (uptake ratio) (MATE2K): 1.48; MATE2K ratio (MATE2K): 1.48; MATE1 (uptake ratio) (MATE1): 1.42; MATE1 ratio (MATE1): 1.42
CN(C)CCc1c[nH]c2ccc(Cn3cncn3)cc12 [Rizatriptan]	3.35	6.63	3.35	6.63	–
CCNC(C)Cc1ccc2c(c1)OCO2 (stereo not shown) [Methylenedioxyethamphetamine]	–	–	–	–	MATE2K ratio (MATE2K): 1.39; MATE1 ratio (MATE1): 1.07
O=C(NCC1CCCCN1)c1cc(OCC(F)(F)F)ccc1OCC(F)(F)F (stereo not shown) [Flecainide]	1.19	1.13	–	–	–
CNC[C@H](O)c1cccc(O)c1 [Phenylephrine (S), Phenylephrine]	1.44	12.74	–	–	–
C=CCOc1ccccc1OCC(O)CNC(C)C (stereo not shown) [Oxprenolol]	1.20	1.05	–	–	–
NCCc1c[nH]c2ccc(O)cc12 [Serotonin]	–	12.11	–	12.11	MATE2 (MATE2K): 2.26; MATE2K ratio (MATE2K): 2.26
N[C@@H]1C[C@H]1c1ccccc1 (racemic) [Tranylcypromine]	–	–	–	–	MATE2 (MATE2K): 1.98; MATE1 (MATE1): 1.45
CC/C(=C(\c1ccc(O)cc1)c1ccc(OCCNC)cc1)c1ccccc1 [Endoxifen]	1.21	1.30	–	–	–
CNCCCC12CCC(c3ccccc31)c1ccccc12 [Maprotiline]	1.04	1.17	–	–	–
CC[C@@H]1CN(C(=O)NCC(F)(F)F)C[C@@H]1c1cnc2cnc3[nH]ccc3n12 [Upadacitinib]	–	–	1.27	1.51	–
